Columns and labels:
[1] = target: Sodium-dependent serotonin transporter (Rattus norvegicus, UniProt P31652); test: Binding affinity at serotonin transporter in rat brain by [3H]-citalopram displacement.; format: tissue-based
[2] = target: Norepinephrine transporter (Rattus norvegicus, UniProt Q9WTR4); test: Displacement of [3H]nisoxetine from norepinephrine transporter (NET) of rat brain; format: tissue-based
Rattus norvegicus = species on record: Rattus norvegicus; test: Compound was tested for inhibition of [3H]dopamine uptake (DAUI) in rat synaptosomes; format: functional; details: Brain
[3] = target: T1, Muscarinic acetylcholine receptor M1 (Rattus norvegicus, UniProt P08482); test: Binding affinity at muscarinic M1 receptor in rat brain by [3H]pirenzepine displacement.; format: tissue-based
T1 sequence (P08482 whole entry): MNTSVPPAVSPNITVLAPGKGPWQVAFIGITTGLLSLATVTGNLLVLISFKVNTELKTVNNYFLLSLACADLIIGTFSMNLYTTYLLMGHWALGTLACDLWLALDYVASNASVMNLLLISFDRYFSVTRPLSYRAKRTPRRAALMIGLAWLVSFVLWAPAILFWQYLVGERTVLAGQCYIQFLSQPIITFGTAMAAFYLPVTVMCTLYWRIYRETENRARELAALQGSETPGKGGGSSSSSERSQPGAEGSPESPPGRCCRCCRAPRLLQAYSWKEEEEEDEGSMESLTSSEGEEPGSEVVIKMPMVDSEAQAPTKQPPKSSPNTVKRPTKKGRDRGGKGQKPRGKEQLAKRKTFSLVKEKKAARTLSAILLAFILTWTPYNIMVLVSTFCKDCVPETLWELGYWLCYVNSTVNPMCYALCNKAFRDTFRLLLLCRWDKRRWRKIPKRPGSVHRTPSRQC

[4] = target: Sodium-dependent dopamine transporter (Rattus norvegicus, UniProt P23977); test: biochemical; format: tissue-based, Brain
Sequence of Sodium-dependent dopamine transporter (P23977 whole entry): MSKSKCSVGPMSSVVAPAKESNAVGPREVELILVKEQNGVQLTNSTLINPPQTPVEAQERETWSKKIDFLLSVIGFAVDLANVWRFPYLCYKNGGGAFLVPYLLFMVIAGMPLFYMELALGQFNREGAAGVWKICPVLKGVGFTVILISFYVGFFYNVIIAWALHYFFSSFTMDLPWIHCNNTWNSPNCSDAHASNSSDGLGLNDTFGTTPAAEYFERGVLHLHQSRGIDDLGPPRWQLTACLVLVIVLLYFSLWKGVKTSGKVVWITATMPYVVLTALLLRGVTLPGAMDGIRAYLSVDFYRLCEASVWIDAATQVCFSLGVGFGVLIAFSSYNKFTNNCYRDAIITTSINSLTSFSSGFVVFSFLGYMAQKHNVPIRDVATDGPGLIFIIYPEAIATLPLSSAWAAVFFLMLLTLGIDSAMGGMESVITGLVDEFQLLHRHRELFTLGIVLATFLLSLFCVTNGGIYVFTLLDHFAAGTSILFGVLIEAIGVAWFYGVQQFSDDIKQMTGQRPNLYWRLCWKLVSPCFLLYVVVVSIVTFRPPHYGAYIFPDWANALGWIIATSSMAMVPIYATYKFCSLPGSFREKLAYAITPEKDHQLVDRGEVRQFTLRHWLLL
Description: Binding affinity at dopamine transporter in rat brain by [3H]WIN-35428 displacement.

[5] = Partition coefficient (logD); details: octanol/water

Sequence of Norepinephrine transporter (Q9WTR4 whole entry): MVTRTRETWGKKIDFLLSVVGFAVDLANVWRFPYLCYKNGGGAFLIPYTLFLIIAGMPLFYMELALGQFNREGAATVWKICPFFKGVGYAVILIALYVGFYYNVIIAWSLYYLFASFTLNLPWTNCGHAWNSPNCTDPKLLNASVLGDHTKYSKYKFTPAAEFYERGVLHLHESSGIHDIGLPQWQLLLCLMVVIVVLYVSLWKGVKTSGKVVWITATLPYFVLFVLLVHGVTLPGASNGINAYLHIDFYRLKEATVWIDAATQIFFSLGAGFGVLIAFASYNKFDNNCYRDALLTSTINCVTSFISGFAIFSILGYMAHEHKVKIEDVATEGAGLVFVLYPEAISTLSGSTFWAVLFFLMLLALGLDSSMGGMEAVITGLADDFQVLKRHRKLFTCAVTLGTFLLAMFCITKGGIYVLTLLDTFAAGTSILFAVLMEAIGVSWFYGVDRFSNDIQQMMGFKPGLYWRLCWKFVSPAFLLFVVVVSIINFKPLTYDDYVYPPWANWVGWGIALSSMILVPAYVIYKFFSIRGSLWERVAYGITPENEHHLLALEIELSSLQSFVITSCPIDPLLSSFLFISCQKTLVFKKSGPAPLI
Sequence of Sodium-dependent serotonin transporter (P31652 whole entry): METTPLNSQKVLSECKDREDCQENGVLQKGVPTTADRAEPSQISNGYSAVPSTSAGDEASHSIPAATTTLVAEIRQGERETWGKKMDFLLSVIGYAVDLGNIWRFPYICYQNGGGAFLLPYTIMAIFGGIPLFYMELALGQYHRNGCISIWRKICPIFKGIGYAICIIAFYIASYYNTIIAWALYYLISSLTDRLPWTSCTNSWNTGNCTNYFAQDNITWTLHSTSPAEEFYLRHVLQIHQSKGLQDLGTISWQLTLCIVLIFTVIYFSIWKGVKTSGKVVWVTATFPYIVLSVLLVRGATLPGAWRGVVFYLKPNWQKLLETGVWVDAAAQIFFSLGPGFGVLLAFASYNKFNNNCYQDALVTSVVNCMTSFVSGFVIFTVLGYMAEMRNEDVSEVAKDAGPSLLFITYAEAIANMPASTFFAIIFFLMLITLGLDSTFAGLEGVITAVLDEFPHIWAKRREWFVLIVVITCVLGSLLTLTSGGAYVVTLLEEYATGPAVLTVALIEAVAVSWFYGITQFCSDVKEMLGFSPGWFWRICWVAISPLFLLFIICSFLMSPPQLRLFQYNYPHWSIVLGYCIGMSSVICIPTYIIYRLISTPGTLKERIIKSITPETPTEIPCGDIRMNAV

| Structure (SMILES) | Ki [1] [nM] | Ki [2] [nM] | IC50 (Rattus norvegicus) [nM] | Ki [3] [nM] | Ki [4] [nM] | logD [5] |
| --- | --- | --- | --- | --- | --- | --- |
| O=C(CCN1[C@@H]2CC[C@H]1C[C@@H](OC(c1ccc(F)cc1)c1ccc(F)cc1)C2)Nc1ccccc1 | 1490 | 1420 | 5 | 3280 | 27.6 | – |
| NCCN1[C@@H]2CC[C@H]1C[C@@H](OC(c1ccc(F)cc1)c1ccc(F)cc1)C2 | 4600 | 1420 | 26 | – | – | – |
| Fc1ccc(C(OC2CC3CCC(C2)N3CCCOc2ccccc2)c2ccc(F)cc2)cc1 (centres undefined) | 7730 | 12100 | 227 | 9280 | 703 | – |
| O=C(NCCN1C2CCC1CC(OC(c1ccc(F)cc1)c1ccc(F)cc1)C2)c1ccccc1 (centres undefined) | 597 | 637 | 6.5 | 556 | 13.1 | – |
| Fc1ccc(C(OC2CC3CCC(C2)N3CCNCc2ccccc2)c2ccc(F)cc2)cc1 (centres undefined) | – | – | 8.1 | – | – | – |
| O=C(NCCN1C2CCC1CC(OC(c1ccc(F)cc1)c1ccc(F)cc1)C2)c1cccnc1 (centres undefined) | – | – | 14.2 | – | – | – |
| OCCOCCN1C2CCC1CC(OC(c1ccc(F)cc1)c1ccc(F)cc1)C2 (centres undefined) | 14300 | 3650 | 48.9 | 336 | 42.6 | 2.01 |
| Fc1ccc(C(OC2CC3CCC(C2)N3CCOCc2ccccc2)c2ccc(F)cc2)cc1 (centres undefined) | 1300 | 3060 | 22.3 | 390 | 48.5 | – |
| COC(=O)[C@@H]1C2CC[C@@H](C[C@@H]1OC(=O)c1ccccc1)N2C (single isomer, unassigned) [COCAINE] | – | – | – | – | – | 1.51 |
| Fc1ccc(C(OC2CC3CCC(C2)N3CCOCc2cccs2)c2ccc(F)cc2)cc1 (centres undefined) | 2090 | 3450 | 18.7 | 613 | 65.9 | 4.19 |
| Fc1ccc(C(OC2CC3CCC(C2)N3CCOCCN2CCOCC2)c2ccc(F)cc2)cc1 (centres undefined) | 23000 | 28100 | 659 | 15800 | 1620 | 2.05 |

Reference: ChEMBL document CHEMBL1148338, “Structure-activity relationships at monoamine transporters for a series of N-substituted 3alpha-(bis[4-fluorophenyl]methoxy)tropanes: comparative molecular field analysis, synthesis, and pharmacological evaluation” (J Med Chem, 2004)
